Test results published in paper PMC12830947, “Structure and mechanism of the broad spectrum CRISPR-associated ring nuclease Crn4” (Nature Communications, 2025).

Experiments:
Crn4b = target: T1, Crn4b (Hyphomicrobiales bacterium, UniProt A0ACM8DFW0); assay: HPLC ring nuclease assay; format: biochemical; settings: pH 7.5, 250 mM NaCl, 1 mM EDTA, 37 C
T1 construct: synthetic codon-optimised gene, pEhisV5TEV, E. coli C43(DE3); His tag removed by TEV; homodimer
T1 sequence (A0ACM8DFW0 5-128): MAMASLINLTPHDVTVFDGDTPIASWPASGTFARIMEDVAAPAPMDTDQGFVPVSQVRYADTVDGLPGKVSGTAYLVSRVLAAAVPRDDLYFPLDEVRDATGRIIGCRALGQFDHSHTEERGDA

Crn4a = target: T2, Crn4a (Actinomyces procaprae, UniProt Z9F5G1FLT2); assay: X-ray co-crystal structure, […] A; format: binding; settings: active site at dimer interface, one cA6 per dimer; two Mg2+; pH 5.5; inactive variant
T2 construct: synthetic codon-optimised gene, pEhisV5TEV, E. coli C43(DE3); His tag removed by TEV; homodimer, one cA6 per dimer at the dimer interface
T2 sequence (Z9F5G1FLT2 1-149): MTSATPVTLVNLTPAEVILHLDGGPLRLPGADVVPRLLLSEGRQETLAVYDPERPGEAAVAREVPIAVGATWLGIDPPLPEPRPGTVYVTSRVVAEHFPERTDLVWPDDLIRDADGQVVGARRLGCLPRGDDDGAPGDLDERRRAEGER

[1] = target: Actinomyces procaprae Crn4a (CRISPR ring nuclease 4, subfamily a), wild type (Actinomyces procaprae); assay: crystal structure; apo Crn4a at 13 mg/mL, sitting drop at 293 K, 0.1 M sodium acetate pH 4.5, 22% v/v PEG Smear Broad; 2.34 Å
[2] = target: Actinomyces procaprae Crn4a H15A variant (Actinomyces procaprae); assay: crystal structure; Crn4a H15A at 11 mg/mL with 1.2 molar excess of cA6, sitting drop at 293 K, 23.8% PEG 3350, 0.2 M magnesium chloride, 0.1 M Bis-Tris pH 5.5; 1.44 Å
[3] = target: Hyphomicrobiales bacterium Crn4b (CRISPR ring nuclease 4, subfamily b), wild type (Hyphomicrobiales bacterium); assay: crystal structure; apo Crn4b at 15 mg/mL, sitting drop at 293 K, 20% PEG 6000, 10% ethylene glycol, 0.1 M calcium chloride; 1.09 Å

In the case of `Nc1ncnc2c1ncn2[C@@H]1O[C@@H]2COP(=O)(O)O[C@H]3[C@@H](O)[C@H](n4cnc5c(N)ncnc54)O[C@@H]3COP(=O)(O)O[C@H]3[C@@H](O)[C@H](n4cnc5c(N)ncnc54)O[C@@H]3COP(=O)(O)O[C@H]2[C@H]1O` [cA3], the “HPLC ring nuclease assay” value (Crn4b; intermediate A3>P) is reported as “Crn4b degraded cA4 and cA3 but was inactive against cA6”.
For `Nc1ncnc2c1ncn2[C@@H]1O[C@@H]2COP(=O)(O)O[C@H]3[C@@H](O)[C@H](n4cnc5c(N)ncnc54)O[C@@H]3COP(=O)(O)O[C@H]3[C@@H](O)[C@H](n4cnc5c(N)ncnc54)O[C@@H]3COP(=O)(O)O[C@H]3[C@@H](O)[C@H](n4cnc5c(N)ncnc54)O[C@@H]3COP(=O)(O)O[C@H]2[C@H]1O` [cA4, cyclic tetra-adenylate], the “HPLC ring nuclease assay” value (Crn4b; sequential cleavage via A4>P) was “Crn4b degraded cA4 and cA3 but was inactive against cA6”.
With `Nc1ncnc2c1ncn2[C@@H]1O[C@@H]2COP(=O)(O)O[C@H]3[C@@H](O)[C@H](n4cnc5c(N)ncnc54)O[C@@H]3COP(=O)(O)O[C@H]3[C@@H](O)[C@H](n4cnc5c(N)ncnc54)O[C@@H]3COP(=O)(O)O[C@H]3[C@@H](O)[C@H](n4cnc5c(N)ncnc54)O[C@@H]3COP(=O)(O)O[C@H]3[C@@H](O)[C@H](n4cnc5c(N)ncnc54)O[C@@H]3COP(=O)(O)O[C@H]3[C@@H](O)[C@H](n4cnc5c(N)ncnc54)O[C@@H]3COP(=O)(O)O[C@H]2[C@H]1O` [cA6, cyclic hexa-adenylate] the “X-ray co-crystal structure, 1.44 A” value (Crn4a) was “The structure of Crn4a in complex with cA6 shows the ligand binds at the dimer interface”.
With “Actinomyces procaprae Crn4a (CRISPR ring nuclease 4, subfamily a), wild type (enzyme)” the stoichiometry N [1] was 2.
Molecule “Actinomyces procaprae Crn4a H15A variant (enzyme)” has a stoichiometry N [2] of 2.
Work on “Hyphomicrobiales bacterium Crn4b (CRISPR ring nuclease 4, subfamily b), wild type (enzyme)” yielded a stoichiometry N [3] of 2.
